Test results published in ChEMBL document CHEMBL1132666, “Significant compensatory role of position Y-2 conferring high affinity to non-phosphorylated inhibitors of Grb2-SH2 domain” (Bioorg Med Chem Lett, 1999).

Biological target: Growth factor receptor-bound protein 2 (Homo sapiens, UniProt P62993)
Assay: Inhibitory activity against Growth factor receptor bound protein 2

| IC50 [µM] | Compound |
| --- | --- |
| 20 | CSCC[C@H]1NC(=O)CNC(=O)[C@@H](C(C)C)NC(=O)[C@@H](CC(N)=O)NC(=O)[C@@H](CCC(=O)O)NC(=O)[C@@H](Cc2ccc(O)cc2)NC(=O)[C@@H](CC(C)C)NC(=O)[C@@H](CCC(=O)O)NC(=O)CSC[C@H](C(N)=O)NC(=O)[C@@H](Cc2ccc(O)cc2)NC1=O |
| 100 | CSCC[C@H]1NC(=O)CNC(=O)[C@@H](C(C)C)NC(=O)[C@@H](CC(N)=O)NC(=O)[C@@H](CCC(=O)O)NC(=O)[C@@H](Cc2ccc(O)cc2)NC(=O)[C@@H](CC(C)C)NC(=O)[C@@H](C)NC(=O)CSC[C@H](C(N)=O)NC(=O)[C@@H](Cc2ccc(O)cc2)NC1=O |
| 0.023 | CSCC[C@H]1NC(=O)CNC(=O)[C@@H](C(C)C)NC(=O)[C@@H](CC(N)=O)NC(=O)[C@@H](CCC(=O)O)NC(=O)[C@@H](Cc2ccc(O)cc2)NC(=O)[C@@H](CC(C)C)NC(=O)[C@@H](C)NC(=O)CSC[C@H](C(N)=O)NC(=O)[C@@H](Cc2ccc(OP(=O)(O)O)cc2)NC1=O |
| 0.13 | CSCC[C@H]1NC(=O)CNC(=O)[C@@H](C(C)C)NC(=O)[C@@H](CC(N)=O)NC(=O)[C@@H](CCC(=O)O)NC(=O)[C@@H](Cc2ccc(O)cc2)NC(=O)[C@@H](CC(C)C)NC(=O)[C@@H](CCC(=O)O)NC(=O)CSC[C@H](C(N)=O)NC(=O)[C@@H](Cc2ccc(OP(=O)(O)O)cc2)NC1=O |
| 0.64 | CSCC[C@H]1NC(=O)CNC(=O)[C@@H](C(C)C)NC(=O)[C@@H](CC(N)=O)NC(=O)[C@@H](CCC(=O)O)NC(=O)[C@@H](Cc2ccc(O)cc2)NC(=O)[C@@H](CC(C)C)NC(=O)[C@@H](CC(C(=O)O)C(=O)O)NC(=O)CSC[C@H](C(N)=O)NC(=O)[C@@H](Cc2ccc(O)cc2)NC1=O |
| 3.45 | CSCC[C@H]1NC(=O)CNC(=O)[C@@H](C(C)C)NC(=O)[C@@H](CC(N)=O)NC(=O)[C@@H](CCC(=O)O)NC(=O)[C@@H](Cc2ccc(O)cc2)NC(=O)[C@@H](CC(C)C)NC(=O)[C@@H](CCCC(=O)O)NC(=O)CSC[C@H](C(N)=O)NC(=O)[C@@H](Cc2ccc(O)cc2)NC1=O |
| 27.5 | CSCC[C@H]1NC(=O)CNC(=O)[C@@H](C(C)C)NC(=O)[C@@H](CC(N)=O)NC(=O)[C@@H](CCC(=O)O)NC(=O)[C@@H](Cc2ccc(O)cc2)NC(=O)[C@@H](CC(C)C)NC(=O)[C@@H](Cc2ccc(OP(=O)(O)O)cc2)NC(=O)CSC[C@H](C(N)=O)NC(=O)[C@@H](Cc2ccc(O)cc2)NC1=O |
| 64.5 | CSCC[C@H]1NC(=O)CNC(=O)[C@@H](C(C)C)NC(=O)[C@@H](CC(N)=O)NC(=O)[C@@H](CCC(=O)O)NC(=O)[C@@H](Cc2ccc(O)cc2)NC(=O)[C@@H](CC(C)C)NC(=O)[C@@H](Cc2ccc(OC(C(=O)O)C(=O)O)cc2)NC(=O)CSC[C@H](C(N)=O)NC(=O)[C@@H](Cc2ccc(O)cc2)NC1=O |
